Assays:
Type in all cases: in vivo
[1] = tested on: barnyardgrass (Echinochloa crus-galli); test: Test A greenhouse herbicide test, pre- and postemergence
Outline: (§1)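 Visual injury ratings, 0 (no effect) to 100 (complete control), versus untreated plants after roughly 10 d in a greenhouse. Compounds, formulated in a surfactant-containing non-phytotoxic solvent, were sprayed on loam–sand soil after sowing (pre) or on one- to two-leaf plants 2–10 cm tall (post).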

corn (Zea mays) = test: as above; conditions: Postemergence; for Plant response rating, Corn: 125 g ai/ha, visual rating after approx. 10 d, 0 to 100 scale (0 no effect, 100 complete control); for Corn plant response rating: 500 g ai/ha, 0 to 100 scale, 0 is no effect, 100 is complete control
Outline: as §1

[2] = tested on: foxtail, giant (giant foxtail, Setaria faberii); test: as above
Outline: as §1

kochia (Kochia scoparia) = test: as above
Outline: as §1

[3] = tested on: pigweed (Amaranthus retroflexus); test: as above
Outline: as §1

[4] = tested on: ragweed (common ragweed, Ambrosia elatior); test: as above
Outline: as §1

[5] = tested on: ryegrass, Italian (Italian ryegrass, Lolium multiflorum); test: as above
Outline: as §1

[6] = tested on: wheat (Triticum aestivum); test: as above; conditions: Postemergence; for Plant response rating, Wheat: 125 g ai/ha, 0 to 100 scale where 0 is no effect and 100 is complete control; for Wheat plant response rating: 500 g ai/ha, 0 to 100 scale, 0 is no effect, 100 is complete control
Outline: as §1

[7] = tested on: lambsquarters (Chenopodium album); test: Test C greenhouse herbicide test, pre- and postemergence
Outline: (§2)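 Percent-control ratings (0 none, 100 complete) came from visual comparison with controls held alongside in the greenhouse for 13–15 d. Treatments covered soil application at sowing and foliar application to young plants 2–18 cm tall.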

[8] = tested on: nutsedge, yellow (yellow nutsedge, Cyperus esculentus); test: as above
Outline: as §2

[9] = tested on: ryegrass, Italian (Italian ryegrass, Lolium multiflorum); test: as above
Outline: as §2

[10] = Postemergence, 125 g ai/ha, visual rating after approx. 10 d, 0 to 100 scale (0 no effect, 100 complete control)
[11] = Postemergence, 500 g ai/ha, 0 to 100 scale, 0 is no effect, 100 is complete control
[12] = Preemergence, 125 g ai/ha, 0 to 100 scale where 0 is no effect and 100 is complete control
[13] = Preemergence, 500 g ai/ha, 0 to 100 scale, 0 no effect, 100 complete control
[14] = Postemergence, 125 g ai/ha, 0 to 100 scale where 0 is no effect and 100 is complete control
[15] = Postemergence, 31 g ai/ha, 0 to 100 scale (0 no effect, 100 complete control)
[16] = Postemergence, 125 g ai/ha, scale 0 to 100, 0 is no effect, 100 is complete control
[17] = Postemergence, 250 g ai/ha, scale 0 to 100, 0 no effect, 100 complete control, 13 to 15 d
[18] = Preemergence, 31 g ai/ha, scale 0 to 100, 0 is no effect, 100 is complete control
[19] = Preemergence, 62 g ai/ha, scale 0 to 100, 0 is no effect, 100 is complete control
[20] = Preemergence, 125 g ai/ha, scale 0 to 100, 0 is no effect, 100 is complete control
[21] = Preemergence, 250 g ai/ha, scale 0 to 100 (0 no effect, 100 complete control)
[22] = postemergence, 62 g ai/ha, scale 0 to 100, 0 no effect, 100 complete control

CC(=O)Oc1c(C)nn(C)c(=O)c1-c1c(C)sc2c(C)cc(C)cc12 [Compound 27]
Plant response rating, Barnyardgrass [1, 10]: 90 | Barnyardgrass plant response rating [1, 11]: 90 | Barnyardgrass plant response rating [1, 12]: 90 | Plant response rating, Barnyardgrass [1, 13]: 100 | Plant response rating, Corn (corn (Zea mays)): 0 | Corn plant response rating (corn (Zea mays)): 20 | Plant response rating, Foxtail, Giant [2, 10]: 90 | Foxtail, Giant plant response rating [2, 11]: 90 | Foxtail, Giant plant response rating [2, 12]: 90 | Plant response rating, Foxtail, Giant [2, 13]: 100 | Plant response rating, Kochia (kochia (Kochia scoparia); [10]): 70 | Kochia plant response rating (kochia (Kochia scoparia); [11]): 90 | Kochia plant response rating (kochia (Kochia scoparia); [12]): 40 | Plant response rating, Kochia (kochia (Kochia scoparia); [13]): 90 | Plant response rating, Pigweed [3, 10]: 90 | Pigweed plant response rating [3, 11]: 100 | Pigweed plant response rating [3, 12]: 100 | Plant response rating, Pigweed [3, 13]: 100 | Plant response rating, Ragweed [4, 10]: 100 | Ragweed plant response rating [4, 11]: 100 | Ragweed plant response rating [4, 12]: 90 | Plant response rating, Ragweed [4, 13]: 100 | Plant response rating, Ryegrass, Italian [5, 14]: 100 | Ryegrass, Italian plant response rating [5, 11]: 100 | Ryegrass, Italian plant response rating [5, 12]: 100 | Plant response rating, Ryegrass, Italian [5, 13]: 100 | Plant response rating, Wheat [6]: 0 | Wheat plant response rating [6]: 0 | Lambsquarters plant response rating [7, 15]: 85 | Plant response rating, Lambsquarters [7, 16]: 90 | Plant response rating, Lambsquarters [7, 17]: 98 | Plant response rating, Lambsquarters [7, 18]: 70 | Plant response rating, Lambsquarters [7, 19]: 95 | Plant response rating, Lambsquarters [7, 20]: 95 | Lambsquarters plant response rating [7, 21]: 98 | Lambsquarters plant response rating [7, 22]: 85 | Nutsedge, Yellow plant response rating [8, 15]: 85 | Plant response rating, Nutsedge, Yellow [8, 17]: 95 | Plant response rating, Nutsedge, Yellow [8, 18]: 70 | Plant response rating, Nutsedge, Yellow [8, 19]: 90 | Plant response rating, Nutsedge, Yellow [8, 20]: 90 | Nutsedge, Yellow plant response rating [8, 21]: 95 | Nutsedge, Yellow plant response rating [8, 22]: 80 | Ryegrass, Italian plant response rating [9, 15]: 80 | Plant response rating, Ryegrass, Italian [9, 16]: 90 | Plant response rating, Ryegrass, Italian [9, 17]: 90 | Plant response rating, Ryegrass, Italian [9, 18]: 85 | Plant response rating, Ryegrass, Italian [9, 19]: 90 | Plant response rating, Ryegrass, Italian [9, 20]: 90 | Ryegrass, Italian plant response rating [9, 21]: 95 | Ryegrass, Italian plant response rating [9, 22]: 85

CCC(=O)Oc1c(C)nn(C)c(=O)c1-c1c(C)sc2c(C)cc(C)cc12 [Compound 28]
Plant response rating, Barnyardgrass [1, 10]: 80 | Barnyardgrass plant response rating [1, 11]: 90 | Barnyardgrass plant response rating [1, 12]: 90 | Plant response rating, Barnyardgrass [1, 13]: 90 | Plant response rating, Corn (corn (Zea mays)): 0 | Corn plant response rating (corn (Zea mays)): 20 | Plant response rating, Foxtail, Giant [2, 10]: 90 | Foxtail, Giant plant response rating [2, 11]: 90 | Foxtail, Giant plant response rating [2, 12]: 100 | Plant response rating, Foxtail, Giant [2, 13]: 100 | Plant response rating, Kochia (kochia (Kochia scoparia); [10]): 70 | Kochia plant response rating (kochia (Kochia scoparia); [11]): 90 | Kochia plant response rating (kochia (Kochia scoparia); [12]): 50 | Plant response rating, Kochia (kochia (Kochia scoparia); [13]): 90 | Plant response rating, Pigweed [3, 10]: 90 | Pigweed plant response rating [3, 11]: 90 | Pigweed plant response rating [3, 12]: 100 | Plant response rating, Pigweed [3, 13]: 100 | Plant response rating, Ragweed [4, 10]: 80 | Ragweed plant response rating [4, 11]: 100 | Ragweed plant response rating [4, 12]: 90 | Plant response rating, Ragweed [4, 13]: 90 | Plant response rating, Ryegrass, Italian [5, 14]: 90 | Ryegrass, Italian plant response rating [5, 11]: 100 | Ryegrass, Italian plant response rating [5, 12]: 100 | Plant response rating, Ryegrass, Italian [5, 13]: 100 | Plant response rating, Wheat [6]: 0 | Wheat plant response rating [6]: 0 | Lambsquarters plant response rating [7, 15]: 85 | Plant response rating, Lambsquarters [7, 16]: 100 | Plant response rating, Lambsquarters [7, 17]: 100 | Plant response rating, Lambsquarters [7, 18]: 65 | Plant response rating, Lambsquarters [7, 19]: 85 | Plant response rating, Lambsquarters [7, 20]: 85 | Lambsquarters plant response rating [7, 21]: 90 | Lambsquarters plant response rating [7, 22]: 98 | Nutsedge, Yellow plant response rating [8, 15]: 75 | Plant response rating, Nutsedge, Yellow [8, 16]: 85 | Plant response rating, Nutsedge, Yellow [8, 17]: 90 | Plant response rating, Nutsedge, Yellow [8, 18]: 50 | Plant response rating, Nutsedge, Yellow [8, 19]: 75 | Plant response rating, Nutsedge, Yellow [8, 20]: 85 | Nutsedge, Yellow plant response rating [8, 21]: 70 | Nutsedge, Yellow plant response rating [8, 22]: 85 | Ryegrass, Italian plant response rating [9, 15]: 80 | Plant response rating, Ryegrass, Italian [9, 16]: 90 | Plant response rating, Ryegrass, Italian [9, 17]: 95 | Plant response rating, Ryegrass, Italian [9, 18]: 85 | Plant response rating, Ryegrass, Italian [9, 19]: 90 | Plant response rating, Ryegrass, Italian [9, 20]: 95 | Ryegrass, Italian plant response rating [9, 21]: 95 | Ryegrass, Italian plant response rating [9, 22]: 85

COc1nn(C)c(=O)c(-c2c(C)sc3ccccc23)c1O [Compound 33]
Plant response rating, Barnyardgrass [1, 10]: 40 | Barnyardgrass plant response rating [1, 11]: 90 | Barnyardgrass plant response rating [1, 12]: 20 | Plant response rating, Barnyardgrass [1, 13]: 90 | Plant response rating, Corn (corn (Zea mays)): 0 | Corn plant response rating (corn (Zea mays)): 10 | Plant response rating, Foxtail, Giant [2, 10]: 40 | Foxtail, Giant plant response rating [2, 11]: 90 | Foxtail, Giant plant response rating [2, 12]: 50 | Plant response rating, Foxtail, Giant [2, 13]: 70 | Plant response rating, Kochia (kochia (Kochia scoparia); [10]): 90 | Kochia plant response rating (kochia (Kochia scoparia); [11]): 100 | Kochia plant response rating (kochia (Kochia scoparia); [12]): 30 | Plant response rating, Kochia (kochia (Kochia scoparia); [13]): 80 | Plant response rating, Pigweed [3, 10]: 40 | Pigweed plant response rating [3, 11]: 70 | Pigweed plant response rating [3, 12]: 20 | Plant response rating, Pigweed [3, 13]: 20 | Plant response rating, Ragweed [4, 10]: 90 | Ragweed plant response rating [4, 11]: 90 | Ragweed plant response rating [4, 12]: 80 | Plant response rating, Ragweed [4, 13]: 100 | Plant response rating, Ryegrass, Italian [5, 14]: 50 | Ryegrass, Italian plant response rating [5, 11]: 70 | Ryegrass, Italian plant response rating [5, 12]: 20 | Plant response rating, Ryegrass, Italian [5, 13]: 60 | Plant response rating, Wheat [6]: 0 | Wheat plant response rating [6]: 0 | Lambsquarters plant response rating [7, 15]: 90 | Plant response rating, Lambsquarters [7, 16]: 98 | Plant response rating, Lambsquarters [7, 17]: 100 | Lambsquarters plant response rating [7, 22]: 95 | Nutsedge, Yellow plant response rating [8, 15]: 5 | Plant response rating, Nutsedge, Yellow [8, 16]: 45 | Plant response rating, Nutsedge, Yellow [8, 17]: 65 | Nutsedge, Yellow plant response rating [8, 22]: 15 | Ryegrass, Italian plant response rating [9, 15]: 30 | Plant response rating, Ryegrass, Italian [9, 16]: 70 | Plant response rating, Ryegrass, Italian [9, 17]: 75 | Ryegrass, Italian plant response rating [9, 22]: 45
